Patent publication US20230026259A1, “CA2 COMPOSITIONS AND METHODS FOR TUNABLE REGULATION” (Obsidian Therapeutics, Inc., priority 2019, published 2023)

What was measured:
Type in all cases: cell-based
[1] = system: NIH3T3 cells; test: Destabilization mutant screening of human CA2 linked to GFP, ligand response by FACS (Valdecoxib, Celecoxib, Acetazolamide); conditions: for stabilization with varying doses of Valdecoxib or Celecoxib: NIH3T3 cells, FACS
Experimental: To identify destabilizing mutations of human CA2 that are stabilized upon ligand binding to CA2, two rounds of mutant screening were performed, using a lentivirus CA2 mutant library provided by Genscript (China). These methods were used to generate a library of mutant polypeptides using mutagenesis primers and error prone PCR. Lentiviral vectors expressing the template, wild-type human CA2 operably linked to GFP(OT-001986) was also provided by Genscript along with the CA2 mutant library. The library was packaged into lentivirus, transduced into NIH3T3 cells at a multiplicity of infection (MOI) of approximately 0.3 and select stable cell pools were derived by selecting with selection marker puromycin.
To identify cell pools containing destabilizing mutants of CA2 that are stabilizing when CA2 is bound to its corresponding ligand, cells were sorted using FACS. In the initial round, the bottom 15% of population that was GFP negative in the absence of ligand was selected. Cells were expanded and then treated with 10 μM Celecoxib for 24 hours and harvested for cell sorting. The top 11% GFP positive cells which were also responsive to ligand treatment compared to untreated were collected. Celecoxib was removed from the cultures and replaced with DMSO. […] Genomic DNA was isolated and amplified CA2 mutants were reintroduced to the lentiviral vectors where CA2 was operably linked to GFP. The constructs were transduced into NIH3T3 cells with lentivirus vectors for each clone. The cells were treated with 10 μM Valdecoxib or 10 μM Celecoxib for 24 hours and analyzed by FACS. […] In Table 25, the Construct ID (OT-XXXXXX) refers to the construct which includes the referenced CA2 mutant and the Library ID (LibCXXXXXX) refers to the CA2 mutant itself.
The response of NIH3T3 cells to varying doses of Valdecoxib or Celecoxib for 24 hours was measured and analyzed by FACS.
Clones treated with different ligands were compared to examine the behavior of each mutant with the ligands.

[2] = system: NIH3T3 cells; test: Immunoblotting of cell lysates for GFP after ligand treatment; conditions: 24 hours; for GFP protein expression by immunoblot, Celecoxib or Valdecoxib: NIH3T3 cells, 1, 3, 10 or 30 μM Celecoxib or Valdecoxib
Experimental: The protein expression in the presence of ligand was measured by immunoblotting the cell lysates for GFP.
The protein expression in the presence of ligand was measured by immunoblotting cell lysates for GFP.

[3] = system: NIH3T3 cells; test: Destabilization mutant screening of human CA2 linked to GFP, ligand response by FACS (Valdecoxib, Celecoxib, Acetazolamide)
[4] = NIH3T3, 10 μM Celecoxib vs DMSO
[5] = NIH3T3, 10 μM Valdecoxib vs DMSO
[6] = NIH3T3, Acetazolamide 0.03 μM, 24 hours
[7] = NIH3T3, Acetazolamide 0.1 μM vs DMSO
[8] = NIH3T3, Acetazolamide 0.1 μM, 24 hours
[9] = NIH3T3, Acetazolamide 0.3 μM vs DMSO
[10] = NIH3T3, Acetazolamide 0.3 μM, 24 hours
[11] = NIH3T3, Acetazolamide 1 μM vs DMSO
[12] = NIH3T3, Acetazolamide 1 μM, 24 hours
[13] = NIH3T3, Acetazolamide 3 μM vs DMSO
[14] = NIH3T3, Acetazolamide 3 μM, 24 hours
[15] = NIH3T3, Acetazolamide 10 μM vs DMSO
[16] = NIH3T3, Acetazolamide 10 μM, 24 hours
[17] = NIH3T3, Acetazolamide 30 μM vs DMSO
[18] = NIH3T3, Acetazolamide 30 μM, 24 hours
[19] = NIH3T3, Celecoxib 0 μM, 24 hours
[20] = NIH3T3, Celecoxib 0.03 μM, 24 hours
[21] = NIH3T3, Celecoxib 0.1 μM, 24 hours
[22] = NIH3T3, Celecoxib 0.3 μM, 24 hours
[23] = NIH3T3, Celecoxib 1 μM, 24 hours
[24] = NIH3T3, Celecoxib 3 μM, 24 hours
[25] = NIH3T3, Celecoxib 10 μM, 24 hours
[26] = NIH3T3, Celecoxib 30 μM, 24 hours
[27] = NIH3T3, DMSO, 24 hours (Acetazolamide experiment)
[28] = NIH3T3, Valdecoxib 0 μM, 24 hours
[29] = NIH3T3, Valdecoxib 0.03 μM, 24 hours
[30] = NIH3T3, Valdecoxib 0.1 μM, 24 hours
[31] = NIH3T3, Valdecoxib 0.3 μM, 24 hours
[32] = NIH3T3, Valdecoxib 1 μM, 24 hours
[33] = NIH3T3, Valdecoxib 3 μM, 24 hours
[34] = NIH3T3, Valdecoxib 10 μM, 24 hours
[35] = NIH3T3, Valdecoxib 30 μM, 24 hours
[36] = NIH3T3, Acetazolamide 0.03 μM vs DMSO
[37] = NIH3T3, DMSO (reference), Acetazolamide experiment

CA2 (aa 2-260 of WT, L197P) [LibC000186]
Median PE ([1]; NIH3T3, 10 μM Celecoxib): 8156 | SR (stabilization ratio) [1, 4]: 10 | Median PE ([1]; NIH3T3, 10 μM Valdecoxib): 6570 | SR (stabilization ratio) [1, 5]: 8.05 | Median FITC / Median PE [1, 6]: 872 | Fold change [1, 7]: 1.18 | Median FITC / Median PE [1, 8]: 867 | Fold change [1, 9]: 1.23 | Median FITC / Median PE [1, 10]: 903 | Fold change [1, 11]: 1.28 | Median FITC / Median PE [1, 12]: 936 | Fold change [1, 13]: 1.28 | Median FITC / Median PE [1, 14]: 943 | MFI, comparative analysis ([1]; NIH3T3, Acetazolamide 10 μM): 1189 | Fold change [1, 15]: 1.62 | Median FITC / Median PE [1, 16]: 1189 | MFI, comparative analysis ([1]; NIH3T3, Acetazolamide 30 μM): 1827 | Fold change [1, 17]: 2.49 | Median FITC / Median PE [1, 18]: 1827 | Med (median fluorescence intensity) [1, 19]: 934 | SR (stabilization ratio) [1, 19]: 1 | Med (median fluorescence intensity) [1, 20]: 1177 | SR (stabilization ratio) [1, 20]: 1.26 | Med (median fluorescence intensity) [1, 21]: 1290 | SR (stabilization ratio) [1, 21]: 1.38 | Med (median fluorescence intensity) [1, 22]: 1470 | SR (stabilization ratio) [1, 22]: 1.57 | Med (median fluorescence intensity) [1, 23]: 2065 | SR (stabilization ratio) [1, 23]: 2.21 | Med (median fluorescence intensity) [1, 24]: 4171 | SR (stabilization ratio) [1, 24]: 4.47 | Med (median fluorescence intensity) [1, 25]: 8202 | SR (stabilization ratio) [1, 25]: 8.78 | Med (median fluorescence intensity) [1, 26]: 10200 | SR (stabilization ratio) [1, 26]: 10.92 | MFI, comparative analysis, normalized to parental day 1 ([1]; NIH3T3, Celecoxib μM (concentration not given)): 7312.627 | MFI, comparative analysis ([1]; NIH3T3, DMSO): 734 | Median PE ([1]; NIH3T3, DMSO): 816 | SR (stabilization ratio) ([1]; NIH3T3, DMSO (reference)): 1 | Median FITC / Median PE [1, 27]: 734 | Med (median fluorescence intensity) [1, 28]: 934 | SR (stabilization ratio) [1, 28]: 1 | Med (median fluorescence intensity) [1, 29]: 1223 | SR (stabilization ratio) [1, 29]: 1.31 | Med (median fluorescence intensity) [1, 30]: 1217 | SR (stabilization ratio) [1, 30]: 1.3 | Med (median fluorescence intensity) [1, 31]: 1363 | SR (stabilization ratio) [1, 31]: 1.46 | Med (median fluorescence intensity) [1, 32]: 1711 | SR (stabilization ratio) [1, 32]: 1.83 | Med (median fluorescence intensity) [1, 33]: 3357 | SR (stabilization ratio) [1, 33]: 3.59 | Med (median fluorescence intensity) [1, 34]: 7890 | SR (stabilization ratio) [1, 34]: 8.45 | Med (median fluorescence intensity) [1, 35]: 11800 | SR (stabilization ratio) [1, 35]: 12.63 | MFI, comparative analysis, normalized to parental day 1 ([1]; NIH3T3, Valdecoxib μM (concentration not given)): 7034.458 | stabilization with varying doses of Valdecoxib or Celecoxib ([1]; 24 hours): dose dependent stabilization | GFP protein expression by immunoblot, Acetazolamide ([2]; NIH3T3 cells, 0.3, 1, 3, 10 or 30 μM Acetazolamide): stabilization of GFP with increasing ligand doses | GFP protein expression by immunoblot, Celecoxib or Valdecoxib [2]: stabilization of GFP with increasing ligand doses | Fold change [3, 36]: 1.19 | Fold change [3, 37]: 1

CA2 (aa 2-260 of WT, R27L, T87I, H122Y, N252D) [LibC000226]
Median PE ([1]; NIH3T3, 10 μM Celecoxib): 3816 | SR (stabilization ratio) [1, 4]: 8.65 | Median PE ([1]; NIH3T3, 10 μM Valdecoxib): 3588 | SR (stabilization ratio) [1, 5]: 7.93 | Median FITC / Median PE [1, 6]: 499 | Fold change [1, 7]: 1.85 | Median FITC / Median PE [1, 8]: 704 | Fold change [1, 9]: 3.58 | Median FITC / Median PE [1, 10]: 1360 | Fold change [1, 11]: 9.46 | Median FITC / Median PE [1, 12]: 3594 | Fold change [1, 13]: 17.49 | Median FITC / Median PE [1, 14]: 6645 | Fold change [1, 15]: 24.46 | Median FITC / Median PE [1, 16]: 9295 | Fold change [1, 17]: 28.68 | Median FITC / Median PE [1, 18]: 10900 | Med (median fluorescence intensity) [1, 19]: 531 | SR (stabilization ratio) [1, 19]: 1 | Med (median fluorescence intensity) [1, 20]: 711 | SR (stabilization ratio) [1, 20]: 1.34 | Med (median fluorescence intensity) [1, 21]: 661 | SR (stabilization ratio) [1, 21]: 1.24 | Med (median fluorescence intensity) [1, 22]: 750 | SR (stabilization ratio) [1, 22]: 1.41 | Med (median fluorescence intensity) [1, 23]: 1207 | SR (stabilization ratio) [1, 23]: 2.27 | Med (median fluorescence intensity) [1, 24]: 2544 | SR (stabilization ratio) [1, 24]: 4.79 | Med (median fluorescence intensity) [1, 25]: 5227 | SR (stabilization ratio) [1, 25]: 9.84 | Med (median fluorescence intensity) [1, 26]: 7171 | SR (stabilization ratio) [1, 26]: 13.5 | Median PE ([1]; NIH3T3, DMSO): 441 | SR (stabilization ratio) ([1]; NIH3T3, DMSO (reference)): 1 | Median FITC / Median PE [1, 27]: 380 | Med (median fluorescence intensity) [1, 28]: 531 | SR (stabilization ratio) [1, 28]: 1 | Med (median fluorescence intensity) [1, 29]: 580 | SR (stabilization ratio) [1, 29]: 1.09 | Med (median fluorescence intensity) [1, 30]: 623 | SR (stabilization ratio) [1, 30]: 1.17 | Med (median fluorescence intensity) [1, 31]: 655 | SR (stabilization ratio) [1, 31]: 1.23 | Med (median fluorescence intensity) [1, 32]: 873 | SR (stabilization ratio) [1, 32]: 1.64 | Med (median fluorescence intensity) [1, 33]: 1572 | SR (stabilization ratio) [1, 33]: 2.96 | Med (median fluorescence intensity) [1, 34]: 3902 | SR (stabilization ratio) [1, 34]: 7.35 | Med (median fluorescence intensity) [1, 35]: 6245 | SR (stabilization ratio) [1, 35]: 11.76 | stabilization with varying doses of Valdecoxib or Celecoxib ([1]; 24 hours): dose dependent stabilization | GFP protein expression by immunoblot, Celecoxib or Valdecoxib [2]: stabilization of GFP with increasing ligand doses | Fold change [3, 36]: 1.31 | Fold change [3, 37]: 1
